Where two headings read alike, the source gives them in different places.

For experiment [1], the system named is hand-foot syndrome caused by capecitabine in Balb/c mice. The experiment is described as follows: Mouse model of hand-foot syndrome caused by capecitabine, gel application or oral administration. The experiment is classed as in vivo. As to conditions: Mus musculus, capecitabine 1000 mg/kg once daily; for inhibition in vivo at 300 mg/kg / inhibition in vivo at 200 mg/kg: 192 h, 8 days; for inhibition in vivo at 300 mg/kg: oral 300 mpk twice per day; for inhibition in vivo at 0.5 % / inhibition in vivo at 2 % / inhibition in vivo at 5 % / inhibition in vivo at 1 % / inhibition in vivo at 3 %: topical, 360 h, 15 days; for inhibition in vivo at 0.5 %: gel 0.5 wt%; for inhibition in vivo at 2 %: gel 2 wt%; for inhibition in vivo at 5 %: gel 5 wt%; for inhibition in vivo at 1 %: transdermal 1% (wt %); for inhibition in vivo at 3 %: transdermal 3% (wt %); for inhibition in vivo at 200 mg/kg: oral 200 mpk twice per day. The protocol: A mouse animal model was established. 6-week aged male Balb/c mice were administered with capecitabine by daily gavage. After a few days, mice's paws developed hand-foot syndrome symptoms (similar to the results of the rat model, such as, in FIG. 13). Similar to the human body, mice developed hand-foot syndrome in the forepaws and hind paws after oral administration of capecitabine. The causes of the two are the same, and the disorder is also very similar. Therefore, mice are very good animal models for simulating the hand-foot syndrome caused by capecitabine.
After Balb/c mice were fed and adapted for one week (about 20 g), the mice were divided into groups, with 10 mice in each group. Then, the mice were subject to gavage administration. Capecitabine was dissolved in normal saline with pH=8, and the gavage dose was not greater than 0.3 mL at each time. After gavage, the blank gel was applied to the forepaws and the hind paws (about 4*0.5 cm*0.5 cm) in group of blank gel, and gels containing different drugs were applied to the forepaws and the hind paws (about 4*0.5 cm*0.5 cm) in group of administration. After application, the mice were fixed in Elizabethan collar for 4 hours. After 4 hours, the mice were released, wiped with clean water to remove any residual drug at the application site, and allowed back to the cage. The gavage and application tests are repeated daily until the group of blank has developed obvious hand-foot syndrome. […] Additionally, the thymidine derivative and the combination of thymidine derivative and uridine derivative were orally administered for observing the relief of the hand-foot syndrome. In examples 41-48, thymidine derivative and/or uridine derivative were/was applied, and in examples 49-52, thymidine derivative and/or uridine derivative were/was administered orally.
Table 5 lists the combinations of animal experiments of capecitabine and thymidine derivative (or a combination of thymidine derivative and uridine derivative) and the corresponding experimental results (wherein the data in the column of control rate=the occurrence rate of hand-foot syndrome in group of blank—the occurrence rate of hand-foot syndrome in group of administration).
The effect of thymidine derivative or a combination of thymidine derivative and uridine derivative on a mouse model with chemotherapeutic drug (capecitabine)-induced hand-foot syndrome was tested according to the method in Examples 41-52. Wherein, the drugs were administered transdermally for Examples 119-120 and orally for Examples 121-123.
The test thymidine derivative or the combination of thymidine derivative and uridine derivative, as well as the final concentration of the test compounds were shown in Table 9. Table 9 lists the combinations of animal experiments of capecitabine and the thymidine derivative gel (or a compounded gel of thymidine derivative and uridine derivative) and the corresponding experimental results (wherein the data in the column of control rate=the occurrence rate of hand-foot syndrome in Group of blank—the occurrence rate of hand-foot syndrome in Group of administration).

For experiment [2], the system named is pain in capecitabine hand-foot syndrome rats. The experiment is described as follows: Pain of hand-foot syndrome, mechanical sensitivity in rats (von Frey). Format: in vivo, rat. Conditions: capecitabine 4000 mg/kg hand-foot syndrome rats; thymidine derivative 3%. The method, then:
According to the method of Examples 91-115, after administration of a thymidine derivative (at a concentration of 3%) and co-administration of a thymidine derivative (at a concentration of 1%) with a uridine derivative (at a concentration of 3%) to rat hand-foot syndrome models constructed from 4000 mg/kg of capecitabine for a period of time, pain analysis was performed on the rats, and the pain assessment model was mechanical sensitivity in rats (von Frey). The experimental steps were as follows: first, the rats were allowed to adapt in the room for 1 hour, then the rats were placed in an observation box with a metal mesh floor, and the mice were allowed to stay in the box for 20 minutes to adapt to the experimental platform. Next, a von Frey device was used to detect paw pain by stimulating the surface of the rat's palm with specially designed cilia to detect the mechanical sensitivity of the animal at strength of 0.4 g, 0.8 g, 1.5 g, 2.5 g, 4 g, 8 g, 10 g and 20 g (IITC Life Science, Woodland Hills, 2390 series). […] The rat movement response was considered to be a vague response, in which case the stimulation experiment was repeated.

In experiment [3] the test system is hand-foot syndrome caused by capecitabine in SD rats. Kind of experiment: Rat model of hand-foot syndrome caused by capecitabine, gel application. The experiment is classed as in vivo. Conditions: capecitabine 4000 mg/kg once daily, 40 days; for inhibition in vivo at 3 % / inhibition in vivo at 0.1 % / inhibition in vivo at 0.5 % / inhibition in vivo at 1 % / inhibition in vivo at 5 %: Rattus norvegicus, topical, 960 h; for inhibition in vivo at 3 % / inhibition in vivo at 0.1 % / inhibition in vivo at 0.5 % / inhibition in vivo at 1 % / inhibition in vivo at 5 % / Control Rate Forepaws / Control Rate Hindpaws: rats; for Control Rate: SD rats; for inhibition in vivo at 0.1 %: gel 0.10 wt%; for inhibition in vivo at 0.5 %: gel 0.50 wt%; for inhibition in vivo at 5 %: gel 5 wt%. The protocol:
A rat animal model was established. 6-week aged female SD rats were administered with capecitabine by daily gavage. The degree of hand-foot syndrome in paws is similar, and there was no difference between the left and right paws. Similar to the human body, rats developed hand-foot syndrome after oral administration of capecitabine. The causes of the two are the same, and the disorder is also very similar. Therefore, rats are very good animal models for simulating the hand-foot syndrome caused by capecitabine.
After SD rats were fed and adapted for one week (about 200 g), the rats were divided into groups, with 10 rats in each group. Then, the rats were subject to gavage administration. Capecitabine was dissolved in a 1:1 mixed solution of castor oil and ethanol and diluted for three times with PBS buffer. After gavage, the rats were fixed with a fixed cylinder, and a gel of thymidine derivative (or a compounded gel of thymidine derivative and uridine derivative) was applied to double hind paws (about 1 cm*3 cm) of the rats in group of administration (the types and concentrations are shown in Table 4), and a blank gel was applied to the group of blank (as a blank control). After approximately 4 hours of application, the rats were released after 4 hours, wiped with clean water to remove any residual drug at the application site, and allowed back to the cage. The thymidine derivative gel (or the compounded gel of thymidine derivative and uridine derivative) was administered with gavage every day. The gavage and application tests are repeated daily until the group of blank has developed obvious hand-foot syndrome.
Table 4 lists the combinations of animal experiments of capecitabine and the thymidine derivative gel (or the compounded gel of thymidine derivative and uridine derivative) and the corresponding experimental results (wherein, the data in the column of control rate=the occurrence rate of hand-foot syndrome in group of blank—the occurrence rate of hand-foot syndrome in group of administration). […]

Where [4] appears, read: read-out: Control Rate Forepaws.
Setting [5] is: read-out: Control Rate Hindpaws.
The mark [6] stands for this setting: gel 3 wt%, read-out: Control Rate Forepaws.
[7] abbreviates: gel 3 wt%, read-out: Control Rate Hindpaws.

As to `CC(=O)OCC1OC(n2cc(C)c(=O)[nH]c2=O)CC1OC(C)=O` (stereo not shown) [T1], the inhibition in vivo at 300 mg/kg was found to be 80% in experiment [1] (setting [4]) and 90% in experiment [1] (setting [5]). For the same compound, the inhibition in vivo at 0.5 % in experiment [1] (setting [4]) came to 30%; in experiment [1] (setting [5]), 20%. Also, the inhibition in vivo at 2 % in experiment [1] (setting [4]) stood at 45.6%; in experiment [1] (setting [5]), 34.4%. The inhibition in vivo at 5 % in experiment [1] (setting [4]) is 67.8%; in experiment [1] (setting [5]), 78.9%. The “pain in rats (von Frey mechanical sensitivity)” value (shortened to “pain in rats”) in experiment [2] is recorded as “did not significantly improve pain in rats”. The inhibition in vivo at 3 % in experiment [3] (setting [6]) came to 57.1%; in experiment [3] (setting [7]) it was 71.4%. The “Control Rate” value came to 20.00% in experiment [3] (gel 0.5 wt% on hind paws), 27.50% in experiment [3] (gel 2 wt% on hind paws) and 56.67% in experiment [3] (gel 5 wt% on hind paws).

As to `CC(=O)O[C@H]1C[C@H](n2cc(C)c(=O)[nH]c2=O)O[C@@H]1CO` [T2], the figures for the inhibition in vivo at 2 % in experiment [1] (setting [4]) and in experiment [1] (setting [5]) were 40% and 27.5%, respectively. In addition, in experiment [3] (gel 1 wt% on hind paws), the “Control Rate” value stood at 23.33%.

With `CC(=O)OC[C@H]1O[C@@H](n2cc(C)c(=O)[nH]c2=O)C[C@@H]1O` [T3], the inhibition in vivo at 2 % in experiment [1] (setting [4]) came to 20%; in experiment [1] (setting [5]) it was 30%. Besides, in experiment [3] (gel 1 wt% on hind paws), the “Control Rate” value came to 27.50%.

Take `COc1ccc2cc([C@H](C)C(=O)OC[C@H]3O[C@@H](n4cc(C)c(=O)[nH]c4=O)C[C@@H]3O)ccc2c1` [T25]: the inhibition in vivo at 5 % in experiment [1] (setting [4]) came to 44.4%; in experiment [1] (setting [5]) it was 66.7%; in experiment [3] (setting [4]), 57.1%; in experiment [3] (setting [5]), 71.4%. Moreover, the inhibition in vivo at 1 % in experiment [1] (setting [4]) was determined as 22.2%; in experiment [1] (setting [5]) it was 44.4%; in experiment [3] (gel 1 wt%, read-out: Control Rate Forepaws), 37.5%; in experiment [3] (gel 1 wt%, read-out: Control Rate Hindpaws) it was 50%. Also, the inhibition in vivo at 3 % in experiment [1] (setting [4]) stood at 25%; in experiment [1] (setting [5]), 37.5%; in experiment [3] (setting [6]), 62.5%; in experiment [3] (setting [7]), 75%. For the same compound, in experiment [2], the “pain in rats” value was “could significantly improve pain in rats”. Further, the inhibition in vivo at 0.1 % in experiment [3] (setting [4]) came to 22.2%; in experiment [3] (setting [5]), 33.3%. Besides, the inhibition in vivo at 0.5 % in experiment [3] (setting [4]) is 22.2%; in experiment [3] (setting [5]), 44.4%.

Turning to `Cc1ccc(C(=O)c2ccc(CC(=O)OC[C@H]3O[C@@H](n4cc(C)c(=O)[nH]c4=O)C[C@@H]3O)n2C)cc1` [T36], the “pain in rats” value in experiment [2] is “could significantly improve pain in rats”. The “Control Rate Forepaws” value in experiment [3] (gel 1 wt%) is given as 28.57%; in experiment [3] (gel 3 wt%), 44.44%. Moreover, the “Control Rate Hindpaws” value came out at 42.86% in experiment [3] (gel 1 wt%) and 44.44% in experiment [3] (gel 3 wt%).

As to `CC1=C(CC(=O)OC[C@H]2O[C@@H](n3cc(C)c(=O)[nH]c3=O)C[C@@H]2O)c2cc(F)ccc2/C1=C\c1ccc([S+](C)[O-])cc1` (stereo partly shown) [T40], the inhibition in vivo at 200 mg/kg came to 75% in experiment [1] (setting [4]) and 88% in experiment [1] (setting [5]). In addition, the inhibition in vivo at 3 % in experiment [3] (setting [6]) came out at 44.4%; in experiment [3] (setting [7]), 66.7%.

As for `Cc1cn([C@H]2C[C@H](OC(=O)C(C)c3cccc(C(=O)c4ccccc4)c3)[C@@H](CO)O2)c(=O)[nH]c1=O` (stereo partly shown) [T50], the “pain in rats” value in experiment [2] is given as “could significantly improve pain in rats”. For the same compound, the inhibition in vivo at 3 % in experiment [3] (setting [6]) turned out to be 71.4%; in experiment [3] (setting [7]) it was 57.1%.

For the origin of these results see US20230405003A1, “APPLICATION OF THYMIDINE DERIVATIVE IN PREPARATION OF DRUGS” (ONQUALITY PHARMACEUTICALS CHINA LTD., priority 2020, published 2023).
